Here are results for 13 compounds from article PMC10675174, “Design, Synthesis, and Repurposing of Rosmarinic Acid-β-Amino-α-Ketoamide Hybrids as Antileishmanial Agents” (Pharmaceuticals, 2023).

Data set [1] has as its system promastigotes of L. infantum. The settings on record: cited from earlier work.
Data set [2] relates to L. donovani promastigotes. Put plainly: In vitro L. donovani promastigotes growth inhibition (resazurin-based assay). It counts as cell-based. The settings on record: Leishmania donovani, 72 h; for inhibition at 25 µM / inhibition at 50 µM: growth of L. donovani promastigotes, incubation 3 days, relative to control; for IC50: incubation for 3 days, from dose-response curves, read-out: IC50 against L. donovani promastigotes. The method, then:
Using an in vitro promastigotes-based model, the activity of the synthesized target compounds 2a–i was assessed against the promastigote stage of L. donovani. A double-concentration assay was performed for each compound at 50 and 25 µM concentrations adopting a resazurin-based assay system. Erufosine was used as a positive reference standard drug.
Among the evaluated compounds, seven derivatives maintained a high inhibitory activity at 25 and 50 μM concentrations which was similar to erufosine. Therefore, they were advanced to assessment of potency to evaluate their quality as antileishmanial hit compounds. […] Erufosine was used as positive controls for comparison.
(§1) 2.1. In vitro L. donovani promastigotes-based evaluation model
(§2) 2.1.1. Cell culture of parasite
(§3) L. donovani MHOM/SD/62/1S-CL2D parasites (Department of PIV, Institut Pasteur, Paris,
(§4) France) were cultured as promastigotes at 28 °C in M199 medium (Sigma-Aldrich, St. Louis, MO,
(§5) USA) with 40 mM HEPES, 0.1 mM adenine, 0.0001% biotin, and 4.62 mM NaHCO3
(§6) supplemented with 10% foetal bovine serum (FBS, Gibco, Carlsbad, CA, USA), […]
(§7) penicillin (Gibco), and […] streptomycin (Gibco). Parasites were sub-cultured every 3 or
(§8) 4 days and maintained for 10 passages.
(§9) 2.1.2 Assay of parasite growth inhibition
(§10) The values of growth inhibition of L. donovani promastigotes were determined based on the
(§11) metabolism of resazurin to resorufin by aerobic respiration of metabolically active cells using 384-
(§12) well plates that were seeded with L. donovani promastigotes (5x10^4 cells per well) and incubated
(§13) with tested compounds for 3 days followed by addition of Resazurin sodium salt (200 µM; R7017;
(§14) Sigma-Aldrich, St. Louis, MO, USA) and further incubation for 5 h then the cells were fixed (4%
paraformaldehyde). The plates were analysed using a Victor3TM plate reader (PerkinElmer, Inc.,
Waltham, MA, USA) at 590 nm (emission) and 530 nm (excitation). Miltefosine and erufosine
were used as the reference standards. All measured and calculated values are the averages of
triplicates. The dose-response curves were generated by GraphPad Prism 6 software using a
sigmoidal dose-response equation with a variable hill slope option. […]

A short description of data set [3]: In vitro safety evaluation: cytotoxicity on THP-1 cells. It counts as cell-based. Conditions: human, PMA-treated THP-1 monocytic cells, THP-1 human monocytic cell line. The method, then: As for the considerable toxicities of current antileishmanial therapies, a promising drug candidate should be selective eliciting no potential cytotoxicity towards human cells. […] The newly introduced hit compound needs to be safe and non-toxic to human cells. A comparison with the standard drug erufosine was performed. […] In light of these findings, it might be inferred that both cinnamoyl ketoamide hybrids 2g and 2h could be selective antileishmanial hit compounds for future development.
as §1, §2, §3, §4, §5, §6, §7, §8, §9, §10, §11, §12, §13, §14
paraformaldehyde). The plates were analysed using a Victor3TM plate reader (PerkinElmer, Inc., […]
were used as the reference standards. All measured and calculated values are the averages of […]
The images were acquired based on reading using an Operetta® automated microscope
(PerkinElmer, Inc., Waltham, MA 02451, USA). They were further analysed using ColumbusTM
(PerkinElmer, Inc. Waltham, MA, USA) software to quantify parasite numbers, and host cell
numbers. In brief, large-sized nucleus of host cells was first detected using DAPI signal and the […]

The subject of data set [4] is promastigotes of L. amazonensis. Conditions: read-out: IC50 against promastigotes of L. amazonensis; cited from earlier work.

As to `O=C(/C=C/c1ccc(O)c(O)c1)OCCc1ccccc1` [CAPE, caffeic acid phenethyl ester], the “IC50 against promastigotes of L. infantum” value in data set [1] is 51.0 µg/mL.

A word on the inhibition: it is the change of the read-out against control, counted positive when it falls. The IC50 is the concentration at which inhibition is half-maximal. As to `O=C(C=Cc1ccc(O)c(O)c1)NC(Cc1ccccc1)C(=O)C(=O)NCc1ccccc1` (centres unmarked) [Compound 2a], in data set [2], the inhibition at 25 µM amounted to 97.8 ± 1%, the inhibition at 50 µM turned out to be 103 ± 0.4% and the IC50 was more than 100 µM.

Turning to `COc1ccc(CCNC(=O)C(=O)C(Cc2ccccc2)NC(=O)C=Cc2ccc(O)c(O)c2)cc1` (centres unmarked) [Compound 2b], in data set [2], the inhibition at 25 µM stood at 44 ± 1.2% and the inhibition at 50 µM was found to be 72.83 ± 0.4%.

For `CCC(=Cc1ccc(O)c(O)c1)C(=O)NC(Cc1ccccc1)C(=O)C(=O)NCc1ccccc1` (centres unmarked) [Compound 2c], in data set [2], the inhibition at 25 µM came out at 104 ± 0.3%, the inhibition at 50 µM amounted to 101 ± 0.2% and the IC50 was determined as 87.3 ± 1.2 µM.

Take `CCCC(=Cc1ccc(O)c(O)c1)C(=O)NC(Cc1ccccc1)C(=O)C(=O)NCc1ccccc1` (centres unmarked) [Compound 2d]: in data set [2], the inhibition at 25 µM stood at 107 ± 0.4%, the inhibition at 50 µM is 102 ± 0.1% and the IC50 was determined as 45.2 ± 0.9 µM.

For the compound `CCCC(=Cc1ccc(O)c(O)c1)C(=O)NC(Cc1ccccc1)C(=O)C(=O)NCCc1ccc(OC)cc1` (centres unmarked) [Compound 2e], in data set [2], the inhibition at 25 µM was found to be 104 ± 0.2%, the inhibition at 50 µM is 104 ± 0.1% and the IC50 is 37.6 ± 2.1 µM.

Turning to `CCCCC(=Cc1ccc(O)c(O)c1)C(=O)NC(Cc1ccccc1)C(=O)C(=O)NCc1ccccc1` (centres unmarked) [Compound 2f], in data set [2], the inhibition at 25 µM stood at 104 ± 0.4%, the inhibition at 50 µM came to 100 ± 0.3% and the IC50 was 26.9 ± 1.4 µM.

What is called CC50 is the concentration that lowers cell viability or growth by half. With `CCCCC(=Cc1ccc(O)c(O)c1)C(=O)NC(Cc1ccccc1)C(=O)C(=O)NCCc1ccc(OC)cc1` (centres unmarked) [Compound 2g], in data set [2], the inhibition at 25 µM was found to be 107 ± 0.1%, the inhibition at 50 µM is 103 ± 0.1% and the IC50 is 9.5 ± 0.6 µM. Moreover, the CC50 at 72 h in data set [3] is more than 100 µM.

As to `CCCCC(=Cc1ccc(O)c(OC)c1)C(=O)NC(Cc1ccccc1)C(=O)C(=O)NCCc1ccc(OC)cc1` (centres unmarked) [Compound 2h], in data set [2], the inhibition at 25 µM was determined as 103 ± 0.2%, the inhibition at 50 µM is 100 ± 0.3% and the IC50 was 8.8 ± 0.4 µM. Further, in data set [3], the CC50 at 72 h is more than 100 µM.

Consider `CCCCC(=Cc1ccc(OC)c(OC)c1)C(=O)NC(Cc1ccccc1)C(=O)C(=O)NCCc1ccc(OC)cc1` (centres unmarked) [Compound 2i], for which, in data set [2], the inhibition at 25 µM came out at 79.8 ± 1.8% and the inhibition at 50 µM was determined as 94.2 ± 1.2%.

In the case of `CCCCCCCC/C=C\CCCCCCCCCCCCOP(=O)([O-])OCC[N+](C)(C)C` [Erufosine, reference compound], in data set [2], the inhibition at 25 µM stood at 100 ± 1%, the inhibition at 50 µM was 107.6 ± 0.3% and the IC50 came out at 9.8 ± 0.7 µM. This compound returned a CC50 at 72 h in data set [3] of 19.4 µM.

With `O=C(/C=C/c1ccc(O)c(O)c1)O[C@H](Cc1ccc(O)c(O)c1)C(=O)O` [Rosmarinic acid], the IC50 is 61 µM in data set [4] and 57.3 µM in data set [1] (read-out: IC50 against promastigotes of L. infantum).

As to `O=C(/C=C/c1ccc(O)c(O)c1)O[C@@H]1C[C@](O)(C(=O)O)C[C@@H](O)[C@H]1O` [chlorogenic, chlorogenic acid], in data set [4], the IC50 was more than 500 µM.
